Experimental findings from patent US4868182A, “Enhancement of prazosin” (Merrell Dow Pharmaceuticals Inc., priority 1988, dated 1989) are described below.

Test [1] relates to spontaneously hypertensive rats. Description: lowering of systolic blood pressure in spontaneously hypertensive rats. The class given is in vivo, rat. Particulars: SHR, oral, prazosin 0.1 mg/kg, alone or combined, mean ± SE.
The target in test [2] is cyclic AMP-phosphodiesterase. Description: in vitro inhibition of cyclic AMP-phosphodiesterase. The test is classed as biochemical. Conditions: 50% inhibition of cyclic AMP-phosphodiesterase activity on 1 micromolar substrate. As to the method: In general, the specific cyclic AMP-phosphodiesterase inhibitors of this invention, (i.e., the above-described cardiotonic agents) when conjunctively administered with prazosin to effect their synergistic activity, are administered at about the threshold dose to exert a blood pressure lowering effect, i.e., the minimum dose it takes to exert a statistically significant lowering of blood pressure. This threshold dose is readily determined by standard laboratory methodology. For example, assays such as the Spontaneously Hypertensive Rat and the Anesthesized Dog for testing blood pressure effects may readily be employed to determine the threshold dose of lowering blood pressure. The threshold dose may also be approximately calculated from an in vitro IC50 value. For this purpose the in vitro IC50 value is the micromolar quantity of compound needed to effect a 50% inhibition of the activity of cyclic AMP-phosphodiesterase on one (1) micromolar quantity of substrate. This IC50 value, when multiplied by the appropriate fraction for intravenous and oral administrations will yield the dosage range, in mg per kg of body weight, necessary to effect its synergism with prazosin.
On the basis of spontaneously hypertensive rat data the multiplying factor is 1/10 to 1 for the intravenous dose and 1 to 10 for the oral dose. […]

What is called IC50 is the point on the concentration scale where inhibition reaches its midpoint.

On to `Nc1cc(-c2ccncc2)c[nH]c1=O` [amrinone], for which, in test [1] (Table 2, amrinone 55 mg/kg), the “systolic blood pressure change from control at 1 hour” value is -26 ± 6 mmHg, the “systolic blood pressure change from control at 2 hours” value is reported as -23 ± 5 mmHg, the “systolic blood pressure change from control at 3 hours” value was -21 ± 8 mmHg and the “systolic blood pressure change from control at 4 hours” value is -23 ± 7 mmHg.

With `CCc1[nH]c(=O)[nH]c1C(=O)c1ccncc1` [piroximone], in test [2], the IC50 was determined as 26 µM. For the same compound, in test [1] (Table 1, piroximone 25 mg/kg), the “systolic blood pressure change from control at 1 hour” value is -23 ± 5 mmHg, the “systolic blood pressure change from control at 2 hours” value is -17 ± 6 mmHg, the “systolic blood pressure change from control at 3 hours” value is on record as -18 ± 7 mmHg and the “systolic blood pressure change from control at 4 hours” value is reported as -20 ± 5 mmHg.

For the compound `COc1cc2nc(N3CCN(C(=O)c4ccco4)CC3)nc(N)c2cc1OC` [prazosin], in test [1] (Table 1, piroximone 25 mg/kg), the “systolic blood pressure change from control at 1 hour” value is -40 ± 4 mmHg, the “systolic blood pressure change from control at 2 hours” value is given as -40 ± 4 mmHg, the “systolic blood pressure change from control at 3 hours” value is -42 ± 4 mmHg and the “systolic blood pressure change from control at 4 hours” value is given as -35 ± 5 mmHg. Moreover, in test [1] (Table 2, amrinone 55 mg/kg), the “systolic blood pressure change from control at 1 hour” value was -32 ± 3 mmHg, the “systolic blood pressure change from control at 2 hours” value is -31 ± 4 mmHg, the “systolic blood pressure change from control at 3 hours” value is recorded as -32 ± 4 mmHg and the “systolic blood pressure change from control at 4 hours” value is given as -31 ± 4 mmHg.
